Measured values as given in paper PMC6022226, “Novel coumarin-6-sulfonamides as apoptotic anti-proliferative agents: synthesis, in vitro biological evaluation, and QSAR studies” (Journal of Enzyme Inhibition and Medicinal Chemistry, 2018).
Read-outs that look alike come from different tables or passages of the source. Each block holds one molecule with its values, some of them ahead of it.

What was measured:
[1] = system: Bcl-2; assay: ELISA immunoassay, Bcl-2 expression level in HepG2 cells; format: cell-based, human; details: HepG2 cells treated at IC50 concentration
From the text: (§1) The levels of the apoptotic markers (Bax, caspase-3) and the anti-apoptotic marker (Bcl-2) were examined using ELISA colorimetric kits per the manufacturer’s protocol and referring to reported instructions[51] ^, [52].
(§2) The Bcl-2 proteins family is mainly responsible for synchronizing the mitochondrial apoptotic pathway, and classified into two major classes: anti-apoptotic proteins such as Bcl-2 protein and the counteracting pro-apoptotic proteins including Bax protein. In this study, we examined the impact of coumarins 13a and 15a on the level of the anti-apoptotic Bcl2 and the level of the pro-apoptotic Bax (Table 3).

[2] = system: HepG2 hepatocellular carcinoma; assay: In vitro anti-proliferative activity, SRB assay, HepG2; format: cell-based, human; details: for fold increased potency than doxorubicin: HepG2 IC50 ratio
Description: (§3) HepG2 liver cancer, MCF-7 breast cancer and Caco-2 cancer cell lines were obtained from the National Cancer Institute (Cairo, Egypt). Caco-2 cells were grown in DMEM while HepG2 and MCF-7 were grown in RPMI-1640. Media were supplemented with 10% heat-inactivated FBS, 50 units/mL of penicillin and 50 µg/mL of streptomycin and maintained at 37 °C in a humidified atmosphere containing 5% CO2. The cells were maintained as a “monolayer culture” by serial subculturing. Cytotoxicity was determined using the sulforhodamine B (SRB) method as previously described by Skehan et al.[50] Exponentially growing cells were collected using 0.25% trypsin-EDTA and seeded in 96-well plates at 1000–2000 cells/well in supplemented DMEM medium. After 24 h, cells were incubated for 72 h with various concentrations of the tested compounds as well as doxorubicin as the reference compound. Following 72 h of treatment, the cells were fixed with 10% trichloroacetic acid for 1 h at 4 °C. Wells were stained for 10 min at room temperature with 0.4% SRB dissolved in 1% acetic acid. The plates were air dried for 24 h, and the dye was solubilized with Tris–HCl for 5 min on a shaker at 1600 rpm. The optical density (OD) of each well was measured spectrophotometrically at 564 nm with an ELISA microplate reader (ChroMate-4300, FL, USA). The IC50 values were calculated according to the equation for Boltzmann sigmoidal concentrationeresponse curve using the nonlinear regression models (GraphPad, Prism Version 5). The results reported are means of at least three separate experiments. Significant differences were analyzed by one-way ANOVA wherein the differences were considered to be significant at p < .05.
(§4) All the newly synthesized target coumarin sulfonamides were evaluated for their in vitro anti-proliferative activity against three human tumor cancer cell lines, HepG2 hepatocellular carcinoma, MCF-7 breast cancer, and Caco-2 colon cancer, using SRB colorimetric assay as described by Skehan et al.^50 Doxorubicin was involved in the experiments as a reference cytotoxic compound.

[3] = system: Caco-2 colon cancer; assay: In vitro anti-proliferative activity, SRB assay, Caco-2; format: cell-based, human
Description: as §3, §4

[4] = system: Bax; assay: ELISA immunoassay, Bax expression level in HepG2 cells; format: cell-based, human; details: HepG2 cells treated at IC50 concentration
From the text: as §1, §2

[5] = system: caspase-3; assay: ELISA immunoassay, active caspase-3 level in HepG2 cells; format: cell-based, human; details: HepG2 cells treated at IC50 concentration
From the text: as §1
As a key executioner protease, caspase-3 is activated by upstream initiator caspases as caspase-9.

[6] = system: non-tumorigenic human normal lung fibroblast cell line (WI-38); assay: In vitro cytotoxicity towards normal WI-38 cells; format: cell-based; details: for Selectivity index: WI-38 versus HepG2; for IC50: normal lung fibroblasts
[7] = system: MCF-7 breast cancer; assay: In vitro anti-proliferative activity, SRB assay, MCF-7; format: cell-based, human; details: mean ± SE of three experiments
Description: as §3, §4

[8] = system: HepG2 cells; assay: Cell cycle analysis by DNA flow cytometry (PI); format: cell-based, human; details: HepG2, 24 h, at IC50 concentration
Description: Subsequently, the treated cells were collected by centrifugation, fixed in ice-cold 70% (v/v) ethanol, washed with PBS, re-suspended with 0.1 mg/mL RNase, stained with […] PI, and analyzed by flow cytometry using FACS Calibur (Becton Dickinson, BD). The cell cycle distributions were calculated using CellQuest software (Becton Dickinson)[53].
The impact of compound 13a on cell cycle progression was examined in HepG2 cancer cell line after 24 h of treatment (Figure 2). This impact was illustrated by DNA flow cytometric analysis where HepG2 cells were treated with 13a at concentration equals to its IC50. […] Alteration of the Pre-G1 phase and arrest of G2-M phase were significant remarks for compound 13a to induce apoptosis in HepG2 cells.

[9] = system: HepG2 cells; assay: Annexin V-FITC/PI apoptosis assay; format: cell-based, human; details: HepG2, 24 h
Description: Phosphatidylserine externalization was measured using Annexin V-FITC/PI apoptosis detection kit (BD Biosciences, San Jose, CA) according to the manufacturer's instructions, as reported earlier. HepG2 cells were treated with 13a at defined concentrations for 24 h.
The apoptotic effect of coumarin 13a was further assured by Annexin V-FITC/PI (AV/PI) dual staining assay to investigate the occurrence of phosphatidylserine externalization (Figure 3).

IC50 ([2]; 72 h incubation, SRB, mean ± SE of three experiments, read-out: IC50 HepG2): 5.03 ± 0.39 µM
HepG2 Experimental activity (pIC50) ([2]; external validation test compounds, Table 5, -log IC50 (IC50 in µM)): –0.7016
IC50 ([3]; 72 h incubation, SRB, mean ± SE of three experiments, read-out: IC50 Caco-2): 158 ± 9.39 µM
Caco-2 Experimental activity (pIC50) ([3]; training set, Table 4, -log IC50 (IC50 in µM)): −2.1997
IC50 ([7]; 72 h incubation, read-out: IC50 MCF7): 11 ± 0.96 µM
Molecule: 2-Oxo-N-(4–(1-(2–(5-oxo-4,5-dihydrothiazol-2-yl)hydrazono)ethyl)phenyl)-2H-chromene-6-sulfonamide [Compound 15a]
Bcl-2, folds of control [1]: 0.39 folds
Bcl-2 expression level [1]: 2.73 ng/mg protein
Bcl-2 level, % of control [1]: 38.6%
fold increased potency than doxorubicin [2]: 1.1 fold
Bax expression level [4]: 394.3 Pg/mg protein
Bax, folds of control [4]: 14.3 folds
Caspase-3 (active caspase-3 level) [5]: 0.2625 ng/mg protein
Caspase-3, folds of control [5]: ~5.7 folds
Selectivity index [6]: 11
IC50 [6]: 55.92 ± 0.39 µM

IC50 ([2]; Homo sapiens, HepG2, 72 h, 72 h incubation, SRB, mean ± SE of three experiments, read-out: IC50 HepG2): 3.48 ± 0.28 µM
IC50 ([2]; Homo sapiens, HepG2, training set, Table 4, -log IC50 (IC50 in µM), read-out: HepG2 Experimental activity (pIC50) (converted)): 3.48 µM
IC50 ([3]; Homo sapiens, Caco-2, 72 h incubation, SRB, mean ± SE of three experiments, read-out: IC50 Caco-2): 83.4 ± 7.04 µM
IC50 ([3]; Homo sapiens, Caco-2, training set, Table 4, -log IC50 (IC50 in µM), read-out: Caco-2 Experimental activity (pIC50) (converted)): 83.4 µM
IC50 ([7]; Homo sapiens, MCF7, 72 h incubation): 83.2 ± 6.85 µM
Molecule: CC(=NNc1nc(-c2ccccc2)cs1)c1ccc(NS(=O)(=O)c2ccc3oc(=O)ccc3c2)cc1 [Compound 13a, 2-Oxo-N-(4–(1-(2–(4-phenylthiazol-2-yl)hydrazono)ethyl)phenyl)-2H-chromene-6-sulfonamide]
Bcl-2, folds of control [1]: 0.21 folds
Bcl-2 expression level [1]: 1.51 ng/mg protein
Bcl-2 level, % of control [1]: 21.4%
fold increased potency than doxorubicin [2]: 1.5 fold
arrest in G2-M phase compared to control [8]: 5.4 folds
increase in percentage of cells at Pre-G1 compared to control [8]: 6.4 folds
Bax expression level [4]: 453.3 Pg/mg protein
Bax, folds of control [4]: 16.5 folds
Caspase-3 (active caspase-3 level) [5]: 0.3021 ng/mg protein
IC50 ([6]; Homo sapiens, WI-38): 73.2 ± 3.47 µM
Selectivity index [6]: 21
annexin V-FITC positive apoptotic cells, folds compared to control [9]: about 7.9 folds
annexin V-FITC positive apoptotic cells (UR + LR) ([9]; control 1.75%): 13.76%
